Laboratory results reported in patent publication US11541050B2, “Pyrimidine derivatives for the treatment of viral infections” (JANSSEN SCIENCES IRELAND UC, priority 2011, dated 2023).

target: T1, human TLR8 (wild type sequence) (Homo sapiens, UniProt Q9NR97); experiment: TLR8 cellular NFκB-luc reporter assay, wild type TLR8; assay type: cell-based; parameters: unit not given here; conditions: lowest effective concentration, wild type TLR8 (compounds 74 onward)
T1 construct: expressed in transfected cells; host or cells: HEK293
T1 sequence (Q9NR97 27-1041): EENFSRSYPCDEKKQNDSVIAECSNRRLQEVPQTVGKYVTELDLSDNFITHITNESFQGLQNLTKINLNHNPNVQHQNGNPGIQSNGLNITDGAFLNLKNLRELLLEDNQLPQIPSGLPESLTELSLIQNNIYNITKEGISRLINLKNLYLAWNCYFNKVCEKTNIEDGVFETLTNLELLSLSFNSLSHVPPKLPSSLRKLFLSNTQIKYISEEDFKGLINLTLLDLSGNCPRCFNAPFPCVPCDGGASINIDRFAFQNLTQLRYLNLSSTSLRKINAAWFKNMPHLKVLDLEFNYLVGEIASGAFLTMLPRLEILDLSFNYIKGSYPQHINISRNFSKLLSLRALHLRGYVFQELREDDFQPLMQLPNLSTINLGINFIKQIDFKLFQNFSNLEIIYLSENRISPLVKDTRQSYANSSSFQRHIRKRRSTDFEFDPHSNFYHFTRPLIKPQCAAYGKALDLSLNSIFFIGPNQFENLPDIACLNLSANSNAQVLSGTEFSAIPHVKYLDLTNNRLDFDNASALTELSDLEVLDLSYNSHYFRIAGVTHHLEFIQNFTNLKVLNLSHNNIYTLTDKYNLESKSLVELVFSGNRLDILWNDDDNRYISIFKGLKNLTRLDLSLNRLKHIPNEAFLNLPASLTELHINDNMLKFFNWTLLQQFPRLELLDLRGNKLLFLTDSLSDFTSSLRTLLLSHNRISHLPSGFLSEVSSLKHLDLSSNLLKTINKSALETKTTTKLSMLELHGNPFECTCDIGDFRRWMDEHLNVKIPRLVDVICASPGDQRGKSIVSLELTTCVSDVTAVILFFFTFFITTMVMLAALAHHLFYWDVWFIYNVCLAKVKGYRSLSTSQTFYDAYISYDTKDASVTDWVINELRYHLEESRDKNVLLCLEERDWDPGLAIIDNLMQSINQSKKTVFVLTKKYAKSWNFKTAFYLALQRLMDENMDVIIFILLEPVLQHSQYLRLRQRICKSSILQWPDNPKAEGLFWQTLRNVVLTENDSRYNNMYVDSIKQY
Procedure: (§1) The ability of compounds to activate human TLR7 and/or TLR8 was assessed in a cellular reporter assay using HEK293 cells transiently transfected with a TLR7 or TLR8 expression vector and NFκB-luc reporter construct. In one instance the TLR expression construct expresses the respective wild type sequence or a mutant sequence comprising a deletion in the second leucine-rich repeat of the TLR.
(§2) Briefly, HEK293 cells were grown in culture medium (DMEM supplemented with 10% FCS and 2 mM Glutamine). For transfection of cells in 10 cm dishes, cells were detached with Trypsin-EDTA, transfected with a mix of CMV-TLR7 or TLR8 plasmid (750 ng), NFκB-luc plasmid (375 ng) and a transfection reagent and incubated for 48 hours at 37° C. in a humidified 5% CO2 atmosphere. Transfected cells were then detached with Trypsin-EDTA, washed in PBS and resuspended in medium to a density of 1.67×10^5 cells/mL. Thirty microliters of cells were then dispensed into each well in 384-well plates, where 10 μL of compound in 4% DMSO was already present. Following 6 hours incubation at 37° C., 5% CO2, the luciferase activity was determined by adding 15 μl of Steady Lite Plus substrate (Perkin Elmer) to each well and readout performed on a ViewLux ultraHTS microplate imager (Perkin Elmer). Dose response curves were generated from measurements performed in quadruplicates. Lowest effective concentrations (LEC) values, defined as the concentration that induces an effect which is at least two fold above the standard deviation of the assay, were determined for each compound.

Compound | TLR 8 wt LEC
CCCCNc1nc(N)ncc1OCc1cc(C)n(C)n1 [Compound 117] | 1.120
CCCCNc1nc(N)ncc1OCc1c(C)noc1-c1ccccc1 [Compound 118] | 3.710
CCCCNc1nc(N)ncc1OCc1ccc(C(F)(F)F)o1 [Compound 119] | 6.120
CCCCNc1nc(N)ncc1OCc1ccc(C(=O)OC)o1 [Compound 120] | 3.910
CCCCNc1nc(N)ncc1OCc1ccc(C(F)(F)F)nc1 [Compound 121] | 3.020
CCCCNc1nc(N)ncc1OCc1cccc(C)n1 [Compound 122] | 0.628
CCCCCNc1nc(N)nc(C)c1OCc1ccccc1 [Compound 124] | 13.650
CCC[C@@H](CO)Nc1nc(N)ncc1OCCCc1ccccc1 [Compound 125] | 0.598
CCCCNc1nc(N)ncc1OCCOc1ccc(C#N)cc1 [Compound 126] | 1.020
CCCCNc1nc(N)ncc1OCCOc1cccc(OC)c1 [Compound 127] | 2.050
CCCCNc1nc(N)ncc1OCCOc1ccnc2ccccc12 [Compound 128] | 3.740
CCCCNc1nc(N)ncc1OCCOc1cc(OC)cc(OC)c1 [Compound 129] | 3.250
CCCCNc1nc(N)ncc1OCCOc1cccc(OC)c1OC [Compound 130] | 6.560
CCCCNc1nc(N)ncc1OCCOc1ccccc1C(F)(F)F [Compound 131] | >25

test system: HCV replicon in Huh-7 luc/neo cells; experiment: Suppression of HCV replicon replication by conditioned media from compound-treated PBMC; assay type: cell-based, HCV type 1 b; conditions: Hepatitis C virus; conditioned media from compound-treated PBMC on Huh-7 luc/neo replicon cells (compounds 74 onward); read-out: PBMC HUH-7 EC50
Procedure: Activation of human TLR7 results in robust production of interferon by plasmacytoid dendritic cells present in human blood. The potential of compounds to induce interferon was evaluated by looking at the antiviral activity in the HCV replicon system upon incubation with conditioned media from peripheral blood mononuclear cells (PBMC). […] The assay utilized the stably transfected cell line Huh-7 luc/neo harboring an RNA encoding a bicistronic expression construct comprising the wild type NS3-NS5B regions of HCV type 1 b translated from an Internal Ribosome Entry Site (IRES) from encephalomyocarditis virus (EMCV), preceded by a reporter gene (Firefly-luciferase) and a selectable marker gene (neoR, neomycine phosphotransferase). The construct is flanked by 5′ and 3′ NTRs (non-translated regions) from HCV type 1 b. Continued culture of the replicon cells in the presence of G418 (neoR) is dependent on the replication of the HCV RNA. The stably transfected replicon cells that replicate HCV RNA autonomously and to high levels, encoding inter alia luciferase, were used for profiling of the conditioned cell culture media.
Briefly, PBMCs were prepared from buffy coats of at least two donors using a standard Ficoll centrifugation protocol. Isolated PBMCs were resuspended in RPMI medium supplemented with 10% human AB serum and 2×10^5 cells/well were dispensed into 384-well plates containing compounds (70 μL total volume). After overnight incubation, 10 μL of supernatant was transferred to 384-well plates containing 2.2×10^3 replicon cells/well in 30 μL (plated the day before). Following 24 hours of incubation, replication was measured by assaying luciferase activity using 40 μL/well Steady Lite Plus substrate (Perkin Elmer) and measured with ViewLux ultraHTS microplate imager (Perkin Elmer). […] Recombinant interferon α-2a (Roferon-A) was used as a standard control compound.

Compound | EC50 [nM]
CCCCNc1nc(N)ncc1OCc1cc(C)n(C)n1 [Compound 117] | 88
CCCCNc1nc(N)ncc1OCc1c(C)noc1-c1ccccc1 [Compound 118] | 976
CCCCNc1nc(N)ncc1OCc1ccc(C(F)(F)F)o1 [Compound 119] | 193
CCCCNc1nc(N)ncc1OCc1ccc(C(=O)OC)o1 [Compound 120] | 273
CCCCNc1nc(N)ncc1OCc1ccc(C(F)(F)F)nc1 [Compound 121] | 272
CCCCNc1nc(N)ncc1OCc1cccc(C)n1 [Compound 122] | 25
CCCCCNc1nc(N)nc(C)c1OCc1ccccc1 [Compound 124] | > 23800
CCC[C@@H](CO)Nc1nc(N)ncc1OCCCc1ccccc1 [Compound 125] | 336
CCCCNc1nc(N)ncc1OCCOc1ccc(C#N)cc1 [Compound 126] | 264
CCCCNc1nc(N)ncc1OCCOc1cccc(OC)c1 [Compound 127] | 256
CCCCNc1nc(N)ncc1OCCOc1ccnc2ccccc12 [Compound 128] | 284
CCCCNc1nc(N)ncc1OCCOc1cc(OC)cc(OC)c1 [Compound 129] | 432
CCCCNc1nc(N)ncc1OCCOc1cccc(OC)c1OC [Compound 130] | 103
CCCCNc1nc(N)ncc1OCCOc1ccccc1C(F)(F)F [Compound 131] | 806

target: T2, human TLR7 (wild type sequence) (Homo sapiens, UniProt Q9NYK1); experiment: TLR7 cellular NFκB-luc reporter assay, wild type TLR7; assay type: cell-based; parameters: unit not given here; conditions: lowest effective concentration, wild type TLR7 (compounds 74 onward)
T2 construct: expressed in transfected cells; host or cells: HEK293
T2 sequence (Q9NYK1 27-1049): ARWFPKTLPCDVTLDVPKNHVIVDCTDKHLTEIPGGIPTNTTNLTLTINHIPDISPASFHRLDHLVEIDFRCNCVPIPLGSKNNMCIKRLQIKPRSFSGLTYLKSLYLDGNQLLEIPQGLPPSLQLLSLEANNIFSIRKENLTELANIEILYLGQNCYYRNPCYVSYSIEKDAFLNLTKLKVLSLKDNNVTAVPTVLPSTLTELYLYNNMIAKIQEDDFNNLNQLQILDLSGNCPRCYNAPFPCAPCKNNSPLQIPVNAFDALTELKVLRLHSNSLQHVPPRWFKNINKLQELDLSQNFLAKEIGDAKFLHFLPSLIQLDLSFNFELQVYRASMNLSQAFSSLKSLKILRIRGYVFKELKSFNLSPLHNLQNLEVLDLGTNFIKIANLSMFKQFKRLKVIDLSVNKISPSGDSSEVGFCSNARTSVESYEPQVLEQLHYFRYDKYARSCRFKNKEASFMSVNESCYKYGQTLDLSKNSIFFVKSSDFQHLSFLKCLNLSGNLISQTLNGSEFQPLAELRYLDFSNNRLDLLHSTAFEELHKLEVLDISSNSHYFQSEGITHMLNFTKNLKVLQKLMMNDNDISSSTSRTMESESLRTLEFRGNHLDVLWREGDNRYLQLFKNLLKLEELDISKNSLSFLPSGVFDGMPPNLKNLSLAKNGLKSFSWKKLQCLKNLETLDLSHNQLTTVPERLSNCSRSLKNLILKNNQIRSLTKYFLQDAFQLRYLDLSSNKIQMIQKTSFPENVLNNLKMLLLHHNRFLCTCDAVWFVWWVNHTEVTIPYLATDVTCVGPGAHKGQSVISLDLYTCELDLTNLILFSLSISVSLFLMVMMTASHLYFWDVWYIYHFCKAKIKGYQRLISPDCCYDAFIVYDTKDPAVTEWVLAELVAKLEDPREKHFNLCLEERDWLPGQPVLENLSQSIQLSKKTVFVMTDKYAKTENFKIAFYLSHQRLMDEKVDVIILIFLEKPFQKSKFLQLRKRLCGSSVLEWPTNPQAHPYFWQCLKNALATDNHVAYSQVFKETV
Procedure: as §1, §2

Compound | TLR 7 wt LEC
CCCCNc1nc(N)ncc1OCc1cc(C)n(C)n1 [Compound 117] | 0.335
CCCCNc1nc(N)ncc1OCc1c(C)noc1-c1ccccc1 [Compound 118] | 1.670
CCCCNc1nc(N)ncc1OCc1ccc(C(F)(F)F)o1 [Compound 119] | 1.720
CCCCNc1nc(N)ncc1OCc1ccc(C(=O)OC)o1 [Compound 120] | 0.649
CCCCNc1nc(N)ncc1OCc1ccc(C(F)(F)F)nc1 [Compound 121] | 0.797
CCCCNc1nc(N)ncc1OCc1cccc(C)n1 [Compound 122] | 0.118
CCCCCNc1nc(N)nc(C)c1OCc1ccccc1 [Compound 124] | 15.610
CCC[C@@H](CO)Nc1nc(N)ncc1OCCCc1ccccc1 [Compound 125] | 1.630
CCCCNc1nc(N)ncc1OCCOc1ccc(C#N)cc1 [Compound 126] | 1.000
CCCCNc1nc(N)ncc1OCCOc1cccc(OC)c1 [Compound 127] | 1.030
CCCCNc1nc(N)ncc1OCCOc1ccnc2ccccc12 [Compound 128] | 2.430
CCCCNc1nc(N)ncc1OCCOc1cc(OC)cc(OC)c1 [Compound 129] | 2.090
CCCCNc1nc(N)ncc1OCCOc1cccc(OC)c1OC [Compound 130] | 0.676
CCCCNc1nc(N)ncc1OCCOc1ccccc1C(F)(F)F [Compound 131] | 1.700
